This assay deals with T1, hSERT (Homo sapiens, UniProt P31645).
T1 construct: expressed in transfected cells; host or cells: HEK293 (stably transfected, G418 selection)
T1 sequence (P31645 whole entry): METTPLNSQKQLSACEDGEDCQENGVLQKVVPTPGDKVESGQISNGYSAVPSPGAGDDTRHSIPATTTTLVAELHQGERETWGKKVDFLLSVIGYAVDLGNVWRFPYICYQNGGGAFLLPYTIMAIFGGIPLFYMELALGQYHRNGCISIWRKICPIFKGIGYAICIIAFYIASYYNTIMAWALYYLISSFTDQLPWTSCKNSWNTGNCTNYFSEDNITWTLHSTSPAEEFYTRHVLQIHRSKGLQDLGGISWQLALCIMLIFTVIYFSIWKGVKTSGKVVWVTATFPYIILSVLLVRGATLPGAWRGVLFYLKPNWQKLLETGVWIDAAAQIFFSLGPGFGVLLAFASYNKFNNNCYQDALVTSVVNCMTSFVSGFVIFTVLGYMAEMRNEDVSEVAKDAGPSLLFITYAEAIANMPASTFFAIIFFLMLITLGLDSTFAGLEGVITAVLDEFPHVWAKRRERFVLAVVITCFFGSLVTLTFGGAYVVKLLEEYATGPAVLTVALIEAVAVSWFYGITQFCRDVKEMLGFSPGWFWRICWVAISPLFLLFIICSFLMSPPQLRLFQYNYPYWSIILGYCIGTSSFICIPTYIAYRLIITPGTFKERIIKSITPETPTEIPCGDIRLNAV
Kind of assay: hSERT neurotransmitter uptake assay. The conditions noted are these: serotonin reuptake inhibition, HEK293-hSERT cells; read-out: SERT pIC50 (converted). The class given is cell-based. The method, then: Neurotransmitter uptake assays were used to measure inhibition of ^3H-serotonin (^3H-5-HT) uptake into cells expressing hSERT in order to determine the pIC50 values of test compounds at the transporter, similar to the procedures described in Tsuruda et al. (2010) Journal of Pharmacological and Toxicological Methods 61(2):192-204.
HEK293 cells stably-transfected with human recombinant SERT (HEK293-hSERT) were grown in DMEM medium supplemented with 10% dialyzed fetal bovine serum, 100 μg/ml penicillin, 100 μg/ml streptomycin, 2 mM L-glutamine, and 250 μg/ml of the aminoglycoside antibiotic G418. Cells were incubated in a 5% CO2, humidified incubator at 37° C.
The neurotransmitter uptake assay was performed in a 96-well assay plate in a total volume of 100 μL assay buffer containing HEK293-hSERT cells (7500-10,000 cells/well; plated ˜2 hours prior to assay initiation. Neurotransmitter Transporter Uptake Assay dye (0.5 μM), and eleven different concentrations of compound ranging from 10 μM to […] was used. Non-specific uptake was determined in the presence of indatraline (2.5 μM). The final assay buffer was 12.5 mM Tris-HCl, 5 mM HEPES, 3 mM NaHCO3, 0.3 mM KH2PO4, 0.25 mM Na2HPO4, 130 mM NaCl, 5 mM KCl, 1 mM CaCl2, 0.4 mM MgCl2, 0.3 mM MgSO4, 4 mM D-glucose, 0.025% BSA, 0.1 mM ascorbic acid, pH 7.4.
In pre-incubation studies, test compound was added to cells for 30 minutes at 37° C. prior to the addition of fluorescent substrate. For determination of inhibitory potency, a 10-30 minute endpoint substrate accumulation was determined by fluorescence spectroscopy using a Safire (Tecan Group Ltd., Minnendorf, Switzerland) and analysis was performed as described in Tsuruda et al., supra. For real-time measurements, compounds were either preincubated (as above) or mixed with substrate prior to addition, and kinetic measurements, relative fluorescence units (RFU integrated over 0.5 ms), were made using a cycle time of 1 min.
As to `CS(=O)(=O)CCC(Oc1ccc(C(F)(F)F)cc1)[C@@H]1CCNC1` (single isomer, unassigned) [Example 8-1], the IC50 was not above 100 nM.
As to `CS(=O)(=O)CCC(Oc1ccc(C(F)(F)F)cc1)[C@H]1CCNC1` (single isomer, unassigned) [Example 8-3], the IC50 was not above 100 nM.
Turning to `CC(C)S(=O)(=O)CCC(Oc1ccc(C(F)(F)F)cc1)[C@H]1CCNC1` (single isomer, unassigned) [Example 8-5], the IC50 is not above 10 nM.
For `CS(=O)(=O)C[C@H](Oc1ccc(C(F)(F)F)c(C#N)c1)[C@H]1CCNC1` (stereo in doubt) [Example 2-21, 5-((S)-2-Methanesulfonyl-1-(R)-pyrrolidin-3-ylethoxy)-2-trifluoromethyl-benzonitrile], the IC50 was not above 10 nM.
For `CS(=O)(=O)C[C@@H](Oc1ccc(Cl)c(C#N)c1)[C@@H]1CCNC1` (stereo in doubt) [Example 2-23, 2-Chloro-5-((R)-2-methanesulfonyl-1-(S)-pyrrolidin-3-ylethoxy)benzonitrile], the IC50 is not above 100 nM.
For `CS(=O)(=O)C[C@H](Oc1ccc(Cl)c(C#N)c1)[C@H]1CCNC1` (stereo in doubt) [Example 2-24, 2-Chloro-5-((S)-2-methanesulfonyl-1-(R)-pyrrolidin-3-ylethoxy)benzonitrile] the value was not above 10 nM.
For `CS(=O)(=O)C[C@H](Oc1ccc(Cl)cn1)[C@H]1CCNC1` (stereo in doubt) [Example 4-2, 5-Chloro-2-((S)-2-methanesulfonyl-1-(R)-pyrrolidin-3-ylethoxy)pyridine] the value was not above 100 nM; for `CS(=O)(=O)C[C@@H](Oc1ccc(C(F)(F)F)nc1)[C@@H]1CCNC1` (stereo in doubt) [Example 6-1, 5-((R)-2-Methanesulfonyl-1-(S)-pyrrolidin-3-ylethoxy)-2-trifluoromethylpyridine], not above 100 nM; for `CS(=O)(=O)C[C@H](Oc1ccc(Cl)nc1)[C@H]1CCNC1` (stereo in doubt) [Example 6-4, 2-Chloro-5-((S)-2-methanesulfonyl-1-(R)-pyrrolidin-3-ylethoxy)pyridine], not above 100 nM.
`CS(=O)(=O)C[C@H](Oc1ccc(C(F)(F)F)cc1)[C@H]1CCNC1` [Example 2-1, (S)-3-[(R)-2-Methanesulfonyl-1-(4-trifluoromethylphenoxy)ethyl]pyrrolidine]: the IC50 was not above 10 nM.
Consider `CS(=O)(=O)C[C@H](Oc1ccc(C(F)(F)F)cc1)[C@@H]1CCNC1` [Example 2-2, (R)-3-[(R)-2-Methanesulfonyl-1-(4-trifluoromethylphenoxy)ethyl]pyrrolidine], for which the IC50 was not above 10 nM.
In the case of `CS(=O)(=O)C[C@@H](Oc1ccc(C(F)(F)F)cc1)[C@@H]1CCNC1` [Example 2-3, (R)-3-[(S)-2-Methanesulfonyl-1-(4-trifluoromethylphenoxy)ethyl]pyrrolidine], the IC50 is not above 10 nM.
Turning to `CS(=O)(=O)C[C@H](Oc1ccc(Cl)cc1)[C@H]1CCNC1` [Example 2-4, (S)-3-[(R)-1-(4-Chlorophenoxy)-2-methanesulfonylethyl]pyrrolidine], the IC50 is not above 100 nM.
The value for `CS(=O)(=O)C[C@@H](Oc1ccc([N+](=O)[O-])cc1)[C@H]1CCNC1` [Example 2-5, (S)-3-[(S)-2-Methanesulfonyl-1-(4-nitrophenoxy)ethyl]pyrrolidine] was not above 100 nM.
As for `CS(=O)(=O)C[C@H](Oc1ccc([N+](=O)[O-])cc1)[C@H]1CCNC1` [Example 2-6, (S)-3-[(R)-2-Methanesulfonyl-1-(4-nitro-phenoxy)ethyl]pyrrolidine], the IC50 is not above 100 nM.
Take `CS(=O)(=O)C[C@@H](Oc1ccc(OC(F)(F)F)cc1)[C@H]1CCNC1` [Example 2-9, (S)-3-[(S)-2-Methanesulfonyl-1-(4-trifluoromethoxyphenoxy)ethyl]pyrrolidine]: the IC50 was not above 100 nM.
Consider `CS(=O)(=O)C[C@H](Oc1ccc(OC(F)(F)F)cc1)[C@H]1CCNC1` [Example 2-10, (S)-3-[(R)-2-Methanesulfonyl-1-(4-trifluoromethoxyphenoxy)ethyl]pyrrolidine], for which the IC50 is not above 100 nM.

Values taken from US9000191B2, “Serotonin reuptake inhibitors” (Theravance Biopharma R&D IP, LLC, priority 2010, dated 2015).
